Molecular target: T1, Abf62C (Mycothermus thermophilus, UniProt A0A059U759)
T1 construct: gene AXH62C; N-terminal His tag, pET15b LIC, E. coli BL21(DE3) Gold; monomer
Experiment: X-ray crystal structure of complex, […] Å
Type: binding
Conditions: co-crystals, 2 mM preincubation, 20 mM xylotriose in reservoir, 22 °C; active site subsites +2NR, +1, +2R; no calcium

T1 sequence (A0A059U759 entry or part of it): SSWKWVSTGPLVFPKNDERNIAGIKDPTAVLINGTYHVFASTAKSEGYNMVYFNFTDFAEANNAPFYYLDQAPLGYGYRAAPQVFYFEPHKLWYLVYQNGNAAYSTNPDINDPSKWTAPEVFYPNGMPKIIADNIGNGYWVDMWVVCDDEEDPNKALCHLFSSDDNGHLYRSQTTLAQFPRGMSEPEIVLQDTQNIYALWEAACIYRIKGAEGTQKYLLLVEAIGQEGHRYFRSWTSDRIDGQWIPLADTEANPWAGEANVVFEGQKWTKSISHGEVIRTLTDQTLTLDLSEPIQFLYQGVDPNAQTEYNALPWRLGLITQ

OC1OC[C@@H](O[C@@H]2OC[C@@H](O[C@@H]3OC[C@@H](O)[C@H](O)[C@H]3O)[C@H](O)[C@H]2O)[C@H](O)[C@H]1O (stereo partly shown) [xylotriose]
X-ray crystal structure of complex, 1.48 Å: Abf62C-xylotriose complex have been deposited in the Research Co-laboratory for Structural Bioinformatics Protein Data Bank

Source: paper PMC4408175, “Functional and structural diversity in GH62 α-L-arabinofuranosidases from the thermophilic fungus Scytalidium thermophilum” (Microbial Biotechnology, 2014)
